The values below come from patent US8067447B2, “Modulators of glucocorticoid receptor, AP-1, and/or NF-κB activity and use thereof” (Bristol-Myers Squibb Company, priority 2006, dated 2011).

The test system of experiment [1] is AP-1 induced transcriptional activity. As to the kind of experiment: Cellular Transrepressional Assay (AP-1 luciferase reporter in A549 cells, PMA-activated). The experiment is classed as cell-based. The conditions noted are these: A549 cells with 7x AP-1 luciferase reporter, 10 ng/ml PMA, read-out: AP-1 (EC50, nM) (Cellular Transrepression Assay). Here is the method:
To measure the ability of test molecules to inhibit AP-1 induced transcriptional activity an A549 cell was utilized which was stably transfected with a plasmid containing 7× AP-1 DNA binding sites (pAP-1-Luc plasmid, Stratagene Co. La Jolla, Calif.) followed by the gene for luciferase. Cells were activated with 10 ng/ml of […] (PMA) plus or minus test molecules for 7 hours. After 7 hours a luciferase reagent was added to measure luciferase enzymatic activity in the cell. After a 10 minute incubation of luciferase reagent with cells, luminescence was measured in a TopCount luminescence counter. Repression of AP-1 activity was calculated as the percentage decrease in the signal induced by PMA alone. Test molecules were analyzed in the concentration range from 0.1 nM to 40 μM. EC50s were determined by using standard curve fitting methods such as Excel fit (Microsoft Co.).
A general note: In a reporter assay the amount or activity of a reporter protein is the signal.

The target of experiment [2] is T1, human glucocorticoid receptor (Homo sapiens, UniProt P04150).
T1 construct: purified human recombinant full-length glucocorticoid receptor (2 nM); purchased Invitrogen Part #2893
T1 sequence (P04150 1-777): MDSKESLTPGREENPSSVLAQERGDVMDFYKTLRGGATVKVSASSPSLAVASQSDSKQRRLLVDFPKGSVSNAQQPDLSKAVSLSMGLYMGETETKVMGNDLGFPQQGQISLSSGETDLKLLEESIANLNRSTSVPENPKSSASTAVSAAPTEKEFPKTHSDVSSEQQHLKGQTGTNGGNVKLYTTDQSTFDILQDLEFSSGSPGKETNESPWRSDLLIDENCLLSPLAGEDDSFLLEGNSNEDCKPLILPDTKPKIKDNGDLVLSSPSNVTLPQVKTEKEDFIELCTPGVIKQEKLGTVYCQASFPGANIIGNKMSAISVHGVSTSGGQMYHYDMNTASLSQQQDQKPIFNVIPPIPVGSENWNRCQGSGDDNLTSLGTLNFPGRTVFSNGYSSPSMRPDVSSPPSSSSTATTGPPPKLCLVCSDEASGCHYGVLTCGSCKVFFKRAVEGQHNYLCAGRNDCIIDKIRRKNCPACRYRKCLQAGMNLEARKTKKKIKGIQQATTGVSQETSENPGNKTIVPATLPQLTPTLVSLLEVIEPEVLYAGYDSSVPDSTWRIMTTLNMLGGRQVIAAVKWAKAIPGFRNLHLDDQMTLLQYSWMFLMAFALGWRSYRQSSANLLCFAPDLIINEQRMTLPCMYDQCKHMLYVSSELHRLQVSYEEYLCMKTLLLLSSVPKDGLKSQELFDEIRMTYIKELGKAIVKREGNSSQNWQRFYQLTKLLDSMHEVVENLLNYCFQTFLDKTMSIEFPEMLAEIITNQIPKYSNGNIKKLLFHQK
As to the kind of experiment: Glucocorticoid Receptor Binding Assay (I), fluorescence polarization competitor kit (Fluormone GS Red). The conditions noted are these: purified human recombinant full-length GR 2 nM, 1 nM Fluormone GS Red, FP. Here is the method:
Briefly, purified human recombinant full-length glucocorticoid receptor (2 nM) was mixed with fluorescently labeled glucocorticoid (1 nM Fluormone GS Red) in the presence or absence of test compound. After two hour incubation at room temperature in the dark, the fluorescence polarization (FP) of the samples was measured. […] Test compounds were analyzed in the concentration range from 8.5E-05 μM to 5 μM.

The mark [3] stands for this setting: read-out: GR (Ki, nM) (GR Binding Assay (I)).

SMILES strings stand for the structures. Read-outs that look alike come from different tables or passages of the source.

As a reminder, the EC50 is the concentration giving half of the maximal effect. In general, Ki refers to the equilibrium dissociation constant of an inhibitor or competing ligand from its target. On to `CC(C)(C(=O)NCCC(F)(F)F)C(c1ccccc1)c1ccc2c(cnn2-c2ccc(F)cc2)c1` (stereo not drawn) [Example 9, 3-(1-(4-fluorophenyl)-1H-indazol-5-yl)-2,2-dimethyl-3-phenyl-N-(3,3,3-trifluoropropyl)-propanamide], for which the half-maximal effective concentration (EC50) in experiment [1] (Homo sapiens, A549, 7 h) stood at 3060 nM. Further, the Ki in experiment [2] (setting [3]) is 3.7 nM.

For the compound `O=C(CC(c1ccccc1)c1ccc2c(cnn2-c2ccc(F)cc2)c1)Nc1nncs1` (single isomer, unassigned) [136-enant A, 3-(1-(4-Fluorophenyl)-1H-indazol-5-yl)-3-phenyl-N-(1,3,4-thiadiazol-2-yl)propanamide], in experiment [1] (7 hours), the EC50 is > 10000 nM. In experiment [2] (setting [3]), the Ki stood at 23 nM.

With `CC(C)n1cc2cc(C(c3ccccc3)C(C)(C)C(=O)Nc3nccs3)ccc2n1` (stereo not drawn) [Example 62], the EC50 in experiment [1] (Homo sapiens, A549, 7 h) was 6150 nM. Further, in experiment [2] (setting [3]), the Ki was determined as 9 nM.

Regarding `CC(C)(C(=O)Nc1nccs1)C(c1ccccc1)c1ccc2[nH]cc(C=O)c2c1` (stereo not drawn) [Example 109, 3-(3-Formyl-1H-indol-5-yl)-2,2-dimethyl-3-phenyl-N-(thiazol-2-yl)propanamide], the EC50 in experiment [1] (Homo sapiens, A549, 7 h) is > 10000 nM. For the same compound, the Ki in experiment [2] (setting [3]) was 59 nM.

For the compound `Cn1ccc(NC(=O)C(C)(C)C(c2ccccc2)c2ccc3c(cnn3-c3ccc(F)cc3)c2)n1` (stereo not drawn) [Example 4, 3-(1-(4-fluorophenyl)-1H-indazol-5-yl)-2,2-dimethyl-N-(1-methyl-1H-pyrazol-3-yl)-3-phenylpropanamide], the EC50 in experiment [1] (Homo sapiens, A549, 7 h) was 12 nM. Also, in experiment [2] (setting [3]), the Ki is 7 nM.

With `CC(C)(C(=O)Nc1nncs1)C(c1ccccc1)c1ccc2[nH]c(-c3ccncc3)cc2c1` (stereo not drawn) [Example 116, 2,2-dimethyl-3-phenyl-3-(2-(pyridin-4-yl)-1H-indol-5-yl)-N-(1,3,4-thiadiazol-2-yl)propanamide], in experiment [1] (Homo sapiens, A549, 7 h), the concentration for a half-maximal effect (EC50) turned out to be 3260 nM. Also, the Ki in experiment [2] (setting [3]) was found to be 43 nM.

For `CC(C)(C(=O)Nc1nccs1)C(c1ccccc1)c1ccc2c(ccn2-c2ccc(F)cc2)c1` (stereo not drawn) [Example 110, 3-(1-(4-Fluorophenyl)-1H-indol-5-yl)-2,2-dimethyl-3-phenyl-N-(thiazol-2-yl)propanamide], in experiment [1] (Homo sapiens, A549, 7 h), the EC50 came to 220 nM. In addition, the Ki in experiment [2] (setting [3]) was found to be 13 nM.

Consider `Cc1nnc(NC(=O)C(C)(C)C(c2ccccc2)c2ccc3c(cnn3-c3ccc(F)cc3)c2)s1` (stereo not drawn) [Example 18, 3-(1-(4-fluorophenyl)-1H-indazol-5-yl)-2,2-dimethyl-N-(5-methyl-1,3,4-thiadiazol-2-yl)-3-phenylpropanamide], for which the EC50 in experiment [1] (Homo sapiens, A549, 7 h) came out at 141 nM. Also, in experiment [2] (setting [3]), the Ki was 21 nM.

Consider `CC(C)(C(=O)Nc1nncs1)C(c1ccccc1)c1ccc2c(cnn2-c2ccc(C(F)(F)F)cc2)c1` (stereo not drawn) [Example 90, 2,2-dimethyl-3-phenyl-N-(1,3,4-thiadiazol-2-yl)-3-(1-(4-(trifluoro-methyl)phenyl)-1H-indazol-5-yl)propanamide], for which the EC50 in experiment [1] (Homo sapiens, A549, 7 h) is > 10000 nM. In addition, in experiment [2] (setting [3]), the inhibition constant Ki worked out at 85 nM.

As for `CC(C)(C(=O)Nc1nccs1)C(c1ccccc1)c1ccc2c(cnn2C2CCOCC2)c1` (stereo not drawn) [Example 58, 2,2-dimethyl-3-phenyl-3-(1-(tetrahydro-2H-pyran-4-yl)-1H-indazol-5-yl)-N-(thiazol-2-yl)propanamide], the EC50 in experiment [1] (Homo sapiens, A549, 7 h) came out at 177 nM. Besides, the inhibition constant (Ki) in experiment [2] (setting [3]) amounted to 10 nM.

On to `CC(C)(C(=O)Nc1nccs1)C(c1ccccc1)c1ccc2c(cnn2-c2cccnc2)c1` (stereo not drawn) [Example 85, 2,2-dimethyl-3-phenyl-3-(1-(pyridin-3-yl)-1H-indazol-5-yl)-N-(thiazol-2-yl)propanamide], for which, in experiment [1] (Homo sapiens, A549, 7 h), the EC50 came out at 40 nM. The Ki in experiment [2] (GR (Ki, nM) (GR Binding Assay (I))) was determined as 7.8 nM.

In the case of `CC(C)(C(=O)Nc1nccs1)C(c1ccccc1)c1ccc2[nH]c(-c3ccccn3)cc2c1` (single isomer, unassigned) [111-enant B, 2,2-Dimethyl-3-phenyl-3-(2-(pyridin-2-yl)-1H-indol-5-yl)-N-(thiazol-2-yl)propanamide], the EC50 in experiment [1] (7 hours) was found to be 777 nM. Also, in experiment [2] (setting [3]), the Ki amounted to 25 nM.

With `CC(C)(C(=O)Nc1nccs1)C(c1ccccc1)c1ccc2[nH]c(-c3ccncc3)cc2c1` (stereo not drawn) [Example 115, 2,2-dimethyl-3-phenyl-3-(2-(pyridin-4-yl)-1H-indol-5-yl)-N-(thiazol-2-yl)propanamide], in experiment [1] (Homo sapiens, A549, 7 h), the concentration for a half-maximal effect (EC50) is 3640 nM. Also, the Ki in experiment [2] (setting [3]) was 26 nM.

Consider `O=C(CC(c1ccccc1)c1ccc2c(cnn2-c2ccc(F)cc2)c1)Nc1nncs1` (single isomer, unassigned) [136-enant B, 3-(1-(4-Fluorophenyl)-1H-indazol-5-yl)-3-phenyl-N-(1,3,4-thiadiazol-2-yl)propanamide], for which the EC50 in experiment [1] (7 hours) was determined as 13 nM. For the same compound, the Ki in experiment [2] (setting [3]) came out at 6 nM.

`CC(C)(C(=O)NS(C)(=O)=O)C(c1ccccc1)c1ccc2c(cnn2-c2ccc(F)cc2)c1` (stereo not drawn) [Example 5, 3-(1-(4-fluorophenyl)-1H-indazol-5-yl)-2,2-dimethyl-N-(methylsulfonyl)-3-phenylpropanamide]: the EC50 in experiment [1] (Homo sapiens, A549, 7 h) was 1330 nM. Also, the Ki in experiment [2] (setting [3]) was determined as 7 nM.

Turning to `CC(C)(C(=O)Nc1nccs1)C(c1ccccc1)c1ccc2[nH]ncc2c1` (stereo not drawn) [Example 29, 3-(1H-Indazol-5-yl)-2,2-dimethyl-3-phenyl-N-(thiazol-2-yl)propanamide], in experiment [1] (Homo sapiens, A549, 7 h), the half-maximal effective concentration (EC50) was 126 nM. The Ki in experiment [2] (setting [3]) was found to be 7.8 nM.

For the compound `CC(C)(C(=O)Nc1nncs1)C(c1ccccc1)c1ccc2c(cnn2-c2ccc(F)cc2C(F)(F)F)c1` (stereo not drawn) [Example 92, 3-(1-(4-fluoro-2-(trifluoromethyl)phenyl)-1H-indazol-5-yl)-2,2-dimethyl-3-phenyl-N-(1,3,4-thiadiazol-2-yl)proponamide], the EC50 in experiment [1] (Homo sapiens, A549, 7 h) was > 10000 nM. Besides, the Ki in experiment [2] (setting [3]) is 110 nM.

On to `CC(C)(C(=O)NS(=O)(=O)C(F)(F)F)C(c1ccccc1)c1ccc2c(cnn2-c2ccc(F)cc2)c1` (stereo not drawn) [Example 6, 3-(1-(4-fluorophenyl)-1H-indazol-5-yl)-2,2-dimethyl-3-phenyl-N-(trifluoromethylsulfonyl) propanamide], for which, in experiment [1] (Homo sapiens, A549, 7 h), the EC50 was > 10000 nM. The Ki in experiment [2] (setting [3]) was found to be 77 nM.

As for `CC(C)(C(=O)Nc1nncs1)C(c1ccccc1)c1ccc2c(cnn2CCCO)c1` (stereo not drawn) [Example 75, 3-(1-(3-hydroxypropyl)-1H-indazol-5-yl)-2,2-dimethyl-3-phenyl-N-(1,3,4-thiadiazol-2-yl)propanamide], the EC50 in experiment [1] (Homo sapiens, A549, 7 h) amounted to 1020 nM. For the same compound, in experiment [2] (setting [3]), the Ki came to 17 nM.

As to `CC(C)(C(=O)Nc1nnc(C2CC2)s1)C(c1ccccc1)c1ccc2c(cnn2-c2ccc(F)cc2)c1` (stereo not drawn) [Example 21, N-(5-cyclopropyl-1,3,4-thiadiazol-2-yl)-3-(1-(4-fluorophenyl)-1H-indazole-5-yl)-2,2-dimethyl-3-phenylpropanamide], the half-maximal effective concentration (EC50) in experiment [1] (Homo sapiens, A549, 7 h) was found to be 155 nM. For the same compound, in experiment [2] (setting [3]), the inhibition constant Ki is 12 nM.

As to `CC(C)(C(=O)Nc1nccs1)C(c1ccccc1)c1ccc2[nH]ccc2c1` (stereo not drawn) [Example 107, 3-(1H-Indol-5-yl)-2,2-dimethyl-3-phenyl-N-(thiazol-2-yl)propanamide], in experiment [1] (Homo sapiens, A549, 7 h), the EC50 was found to be 193 nM. Also, the inhibition constant (Ki) in experiment [2] (setting [3]) was determined as 7.8 nM.

As for `CC(C)(C(=O)Nc1nccs1)C(c1ccccc1)c1ccc2[nH]c(-c3nccs3)cc2c1` (stereo not drawn) [Example 117, 2,2-dimethyl-3-phenyl-N-(thiazol-2-yl)-3-(2-(thiazol-2-yl)-1H-indol-5-yl)propanamide], the EC50 in experiment [1] (Homo sapiens, A549, 7 h) worked out at 3610 nM. Further, the inhibition constant (Ki) in experiment [2] (setting [3]) is 57 nM.

On to `CCOC(=O)c1csc(NC(=O)C(C)(C)C(c2ccccc2)c2ccc3c(cnn3-c3ccc(F)cc3)c2)n1` (stereo not drawn) [Example 27, ethyl 2-(3-(1-(4-fluorophenyl)-1H-indazol-5-yl)-2,2-dimethyl-3-phenylpropanamido)thiazol-4-carboxylate], for which the EC50 in experiment [1] (Homo sapiens, A549, 7 h) was determined as 1310 nM. In experiment [2] (setting [3]), the Ki turned out to be 23 nM.

Regarding `CC(C)(C(=O)Nc1nncs1)C(c1ccccc1)c1ccc2c(cnn2CCO)c1` (stereo not drawn) [Example 65, 3-(1-(2-hydroxyethyl)-1H-indazol-5-yl)-2,2-dimethyl-3-phenyl-N-(1,3,4-thiadiazol-2-yl)propanamide], the EC50 in experiment [1] (Homo sapiens, A549, 7 h) was determined as 550 nM. The inhibition constant Ki in experiment [2] (setting [3]) came to 47 nM.
